According to US10745382B2 (BRISTOL-MYERS SQUIBB COMPANY, priority 2015, dated 2020):

biological target: T1, PD-1/PD-L1 (Homo sapiens, UniProt Q9NZQ7); assay: PD-1/PD-L1 Homogenous Time-Resolved Fluorescence (HTRF) binding assay; settings: PD-L1-His 10 nM, PD-1-Ig 20 nM; numeric IC50; read-out: Range or IC50
T1 construct: made in house; host or cells: HEK293T
How it was run: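 Binding was measured by HTRF in dPBS with 0.1% BSA and 0.05% Tween-20. Detection used europium cryptate anti-Ig (1 nM final) and APC anti-His (20 nM final) added over the binding reaction.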

T1 sequence (Q9NZQ7 with tags, fused parts or gaps): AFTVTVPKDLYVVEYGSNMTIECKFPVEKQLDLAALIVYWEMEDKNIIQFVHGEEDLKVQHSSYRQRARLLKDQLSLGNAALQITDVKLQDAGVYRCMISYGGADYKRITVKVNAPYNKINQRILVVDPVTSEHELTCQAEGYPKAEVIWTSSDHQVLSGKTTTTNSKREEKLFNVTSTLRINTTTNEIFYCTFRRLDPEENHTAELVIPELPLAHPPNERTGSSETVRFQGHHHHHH

Row | IC50 [nM] | Compound
1 | 4 | Cc1c(COc2cc(OCc3cncc(C#N)c3)c(CN3CCCC[C@H]3C(=O)O)cc2Cl)cccc1-c1cccc(OCC(O)CO)c1Cl (stereo partly drawn) [Example 2083, (2S)-1-(5-chloro-4-((2′-chloro-3′-(2,3-dihydroxypropoxy)-2-methyl-[1,1′-biphenyl]-3-yl)methoxy)-2-((5-cyanopyridin-3-yl)methoxy)benzyl)piperidine-2-carboxylic Acid]

same assay, conditions: PD-L1-His 10 nM, PD-1-Ig 20 nM; value given as range class; read-out: Range or IC50

Row | IC50 [nM] | Compound
2 | 0.21 to 10 | Cc1c(COCCN2CC[C@@H](O)C2)cccc1-c1cccc(COc2cc(OCc3cncc(C#N)c3)c(CN(C)C(C)(CO)CO)cc2Cl)c1C [Example 4128, (R)-5-((4-chloro-2-(((1,3-dihydroxy-2-methylpropan-2-yl)(methyl)amino)methyl)-5-((3′-((2-(3-hydroxypyrrolidin-1-yl)ethoxy)methyl)-2,2′-dimethyl-[1,1′-biphenyl]-3-yl)methoxy)phenoxy)methyl)nicotinonitrile]
3 | 0.21 to 10 | Cc1c(COc2cc(OCc3cncc(C#N)c3)c(CN3CCCC[C@H]3C(=O)O)cc2Cl)cccc1-c1cccc(OCCCN(C)CCc2ccccc2)c1C [Example 2218, (2S)-1-(5-chloro-2-((5-cyanopyridin-3-yl)methoxy)-4-((2,2′-dimethyl-3′-(3-(methyl(phenethyl)amino)propoxy)biphenyl-3-yl)methoxy)benzyl)piperidine-2-carboxylic Acid]
4 | 0.21 to 10 | CC(=O)NCCNCc1cc(Cl)c(OCc2cccc(-c3cccc(OCCCN4CC[C@@H](O)C4)c3)c2C)cc1OCc1cncc(C#N)c1 [Example 1015, (R)—N-(2-((5-chloro-2-((5-cyanopyridin-3-yl)methoxy)-4-((3′-(3-(3-hydroxypyrrolidin-1-yl)propoxy)-2-methyl-[1,1′-biphenyl]-3-yl)methoxy)benzyl)amino)ethyl)acetamide]
5 | 0.21 to 10 | Cc1cc(OCc2cccc(-c3cccc(OCCCN4CC[C@@H](O)C4)c3C)c2C)cc(OCc2cncc(C#N)c2)c1CNC(CO)CO [Example 4087, (R)-5-((2-(((1,3-dihydroxypropan-2-yl)amino)methyl)-5-((3′-(3-(3-hydroxypyrrolidin-1-yl)propoxy)-2,2′-dimethyl-[1,1′-biphenyl]-3-yl)methoxy)-3-methylphenoxy)methyl)nicotinonitrile]
6 | 0.21 to 10 | Cc1c(COc2cc(OCc3cncc(C#N)c3)c(CN(C)C(CO)CO)cc2Cl)cccc1-c1cccc(OCCCN2CCC(F)(F)C2)c1C [Example 4120, 5-((4-chloro-5-((3′-(3-(3,3-difluoropyrrolidin-1-yl)propoxy)-2,2′-dimethyl-[1,1′-biphenyl]-3-yl)methoxy)-2-(((1,3-dihydroxypropan-2-yl)(methyl)amino)methyl)phenoxy)methyl)nicotinonitrile]
7 | 10 to 100 | Cc1c(COc2cc(OCc3cncc(C#N)c3)c(CN3CCCC[C@H]3C(=O)O)cc2Cl)cccc1-c1cccc(C(=O)NCCN2CC[C@@H](O)C2)c1C [Example 3060, (S)-1-(5-chloro-2-((5-cyanopyridin-3-yl)methoxy)-4-((3′-((2-((R)-3-hydroxypyrrolidin-1-yl)ethyl)carbamoyl)-2,2′-dimethyl-[1,1′-biphenyl]-3-yl)methoxy)benzyl)piperidine-2-carboxylic Acid]
8 | 0.21 to 10 | Cc1c(COc2cc(OCc3cncc(C#N)c3)c(CNC(C)(CO)CO)cc2Cl)cccc1-c1cccc(OCC(O)CN2CC[C@@H](O)C2)c1Cl (stereo partly drawn) [Example 2086, 5-((4-chloro-5-((2′-chloro-3′-(2-hydroxy-3-((R)-3-hydroxypyrrolidin-1-yl)propoxy)-2-methyl-[1,1′-biphenyl]-3-yl)methoxy)-2-(((1,3-dihydroxy-2-methylpropan-2-yl)amino)methyl)phenoxy)methyl)nicotinonitrile]
9 | 0.21 to 10 | Cc1c(COc2cc(OCc3cncc(C#N)c3)c(CNC[C@H](O)CO)cc2Cl)cccc1-c1cccc(OCCCN(C)CCC(N)=O)c1Cl [Example 2032, (S)-3-((3-((2-chloro-3′-((2-chloro-5-((5-cyanopyridin-3-yl)methoxy)-4-(((2,3-dihydroxypropyl)amino)methyl)phenoxy)methyl)-2′-methyl-[1,1′-biphenyl]-3-yl)oxy)propyl)(methyl)amino)propanamide]
10 | 0.21 to 10 | Cc1c(COc2cc(OCc3cncc(C#N)c3)c(CN3CCCC[C@H]3C(=O)O)cc2Cl)cccc1-c1cccc(OCCCN(C)CCO)c1C [Example 2233, (2S)-1-(5-chloro-2-((5-cyanopyridin-3-yl)methoxy)-4-((3′-(3-((2-hydroxyethyl)(methyl)amino)propoxy)-2,2′-dimethylbiphenyl-3-yl)methoxy)benzyl)piperidine-2-carboxylic Acid]
11 | 0.21 to 10 | Cc1c(COc2cc(OCc3cncc(C#N)c3)c(CN[C@@](C)(CO)C(=O)O)c(C)c2Cl)cccc1-c1cccc(OCCCN2CC[C@@H](O)C2)c1C [Example 4106, (S)-2-((3-chloro-6-((5-cyanopyridin-3-yl)methoxy)-4-((3′-(3-((R)-3-hydroxypyrrolidin-1-yl)propoxy)-2,2′-dimethyl-[1,1′-biphenyl]-3-yl)methoxy)-2-methylbenzyl)amino)-3-hydroxy-2-methylpropanoic Acid]
12 | 0.21 to 10 | Cc1c(COc2cc(OCc3cncc(C#N)c3)c(CN3CCCC[C@H]3C(=O)O)cc2Cl)cccc1-c1cccc(OCCCN2CCOC(C(F)(F)F)C2)c1C (stereo partly drawn) [Example 3058, (2S)-1-(5-chloro-2-((5-cyanopyridin-3-yl)methoxy)-4-((2,2′-dimethyl-3′-(3-(2-(trifluoromethyl)morpholino)propoxy)-[1,1′-biphenyl]-3-yl)methoxy)benzyl)piperidine-2-carboxylic Acid]
13 | 0.21 to 10 | Cc1c(COc2cc(OCc3cc(F)cc(F)c3)c(CNC(C)(CO)CO)cc2Cl)cccc1-c1cccc(OCCCN2CC[C@@H](O)C2)c1C [Example 4520, (R)-2-((5-chloro-2-((3,5-difluorobenzyl)oxy)-4-((3′-(3-(3-hydroxypyrrolidin-1-yl)propoxy)-2,2′-dimethyl-[1,1′-biphenyl]-3-yl)methoxy)benzyl)amino)-2-methylpropane-1,3-diol]
14 | 0.21 to 10 | Cc1c(COc2cc(OCc3cncc(S(C)(=O)=O)c3)c(CN[C@@](C)(CO)C(=O)O)cc2Cl)cccc1-c1cccc(OCCCN2CCC(O)(C(=O)O)CC2)c1C [Example 1041, (S)-1-(3-((3′-((4-(((2-carboxy-1-hydroxypropan-2-yl)amino)methyl)-2-chloro-5-((5-(methylsulfonyl)pyridin-3-yl)methoxy)phenoxy)methyl)-2,2′-dimethyl-[1,1′-biphenyl]-3-yl)oxy)propyl)-4-hydroxypiperidine-4-carboxylic Acid]
15 | 0.21 to 10 | N=C(c1cncc(COc2cc(OCc3cccc(-c4cccc(OCCCN5CC[C@@H](O)C5)c4Cl)c3Cl)c(Cl)cc2CNC[C@H](O)CO)c1)N1CC[C@@H](O)C1 [Example 2101, (S)-3-((5-chloro-4-((2,2′-dichloro-3′-(3-((R)-3-hydroxypyrrolidin-1-yl)propoxy)-[1,1′-biphenyl]-3-yl)methoxy)-2-((5-(((R)-3-hydroxypyrrolidin-1-yl)(imino)methyl)pyridin-3-yl)methoxy)benzyl)amino)propane-1,2-diol]
16 | 0.21 to 10 | Cc1c(COc2cc(OCc3cncc(C#N)c3)c(CN3CC(=O)NC(=O)C3)cc2Cl)cccc1-c1cccc(OCCCN2CC[C@@H](O)C2)c1C [Example 2329, (R)-5-((4-chloro-2-((3,5-dioxopiperazin-1-yl)methyl)-5-((3′-(3-(3-hydroxypyrrolidin-1-yl)propoxy)-2,2′-dimethyl-[1,1′-biphenyl]-3-yl)methoxy)phenoxy)methyl)nicotinonitrile]
17 | 0.21 to 10 | Cc1c(COc2cc(OCc3cncc(C#N)c3)c(CN3CC[C@H](CO)[C@H](O)C3)cc2Cl)cccc1-c1cccc(OCCCN2CC[C@H](CO)[C@H](O)C2)c1C [Example 2257, 5-((4-chloro-2-(((3S,4R)-3-hydroxy-4-(hydroxymethyl)piperidin-1-yl)methyl)-5-((3′-(3-((3S,4R)-3-hydroxy-4-(hydroxymethyl)piperidin-1-yl)propoxy)-2,2′-dimethylbiphenyl-3-yl)methoxy)phenoxy)methyl)nicotinonitrile]
18 | 0.21 to 10 | Cc1c(COc2cc(OCc3cncc(C#N)c3)c(CN[C@](C)(CO)C(=O)O)cc2Cl)cccc1-c1cccc(OCCCN2CC(N(C)C)C2)c1Cl [Example 2013, (R)-2-((5-chloro-4-((2′-chloro-3′-(3-(3-(dimethylamino)azetidin-1-yl)propoxy)-2-methyl-[1,1′-biphenyl]-3-yl)methoxy)-2-((5-cyanopyridin-3-yl)methoxy)benzyl)amino)-3-hydroxy-2-methylpropanoic Acid]
19 | 0.21 to 10 | Cc1c(COc2cc(OCc3cncc(C#N)c3)c(CNC(C)(CO)CO)cc2Cl)cccc1-c1cccc(OCCCNC[C@H](O)CO)c1C [Example 2297, (S)-5-((4-chloro-2-(((1,3-dihydroxy-2-methylpropan-2-yl)amino)methyl)-5-((3′-(3-((2,3-dihydroxypropyl)amino)propoxy)-2,2′-dimethyl-[1,1′-biphenyl]-3-yl)methoxy)phenoxy)methyl)nicotinonitrile]
20 | 0.21 to 10 | Cc1c(COc2cc(OCc3cncc(C#N)c3)c(CN3CCCC[C@H]3C(=O)O)cc2Cl)cccc1-c1cccc(OCCCNC23CC4CC(CC(C4)C2)C3)c1C [Example 2227, (S)-1-(4-((3′-(3-((3s,5s,7s)-adamantan-1-ylamino)propoxy)-2,2′-dimethyl-[1,1′-biphenyl]-3-yl)methoxy)-5-chloro-2-((5-cyanopyridin-3-yl)methoxy)benzyl)piperidine-2-carboxylic Acid]
21 | 10 to 100 | Cc1c(COc2cc(OCc3cncc(C#N)c3)c(CNC(CO)CO)cc2Cl)cccc1-c1cccc(C(=O)N2CCCC2)c1C [Example 4038, 5-((4-chloro-2-(((1,3-dihydroxypropan-2-yl)amino)methyl)-5-((2,2′-dimethyl-3′-(pyrrolidine-1-carbonyl)-[1,1′-biphenyl]-3-yl)methoxy)phenoxy)methyl)nicotinonitrile]
